Reference: ChEMBL document CHEMBL1201862, “PubChem BioAssay data set” (2004)
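Five concentrations, 48 hours, 96-well plates. GI50: concentration for 50% inhibition of growth.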 The source made the active and inactive calls. Cut-off read from the data, not from the text of the source: active = GI50 up to about 1.1 µM and inactive = higher.

Assays:
Test in all cases: growth of human tumour cells (NCI), 48 h
[1] = test system: SF-268
[2] = test system: SR
[3] = test system: ACHN
[4] = test system: OVCAR-3
[5] = test system: CCRF-CEM
[6] = test system: LOX IMVI
[7] = test system: DU-145
[8] = test system: HCT-15
[9] = test system: SW-620
[10] = test system: U-251
[11] = test system: SK-MEL-2
[12] = test system: IGROV-1
[13] = test system: SF-539
[14] = test system: Malme-3M
[15] = test system: MOLT-4
[16] = test system: M14
[17] = test system: COLO 205
[18] = test system: EKVX
[19] = test system: SK-MEL-28
[20] = test system: MCF7
[21] = test system: SK-MEL-5
[22] = test system: SNB-75
[23] = test system: HT-29
[24] = test system: RXF 393
[25] = test system: MDA-MB-231
[26] = test system: UO-31
[27] = test system: BT-549
[28] = test system: KM12
[29] = test system: HCT-116
[30] = test system: K562
[31] = test system: NCI-H226
[32] = test system: UACC-257
[33] = test system: CAKI-1
[34] = test system: SF-295
[35] = test system: 786-0
[36] = test system: OVCAR-8
[37] = test system: PC-3
[38] = test system: NCI-H23
[39] = test system: HOP-62
[40] = test system: A549
[41] = test system: T47D
[42] = test system: HL-60
[43] = test system: HCC 2998
[44] = test system: MDA-MB-435
[45] = test system: UACC-62
[46] = test system: HOP-92
[47] = test system: Hs-578T
[48] = test system: OVCAR-4
[49] = test system: A498
[50] = test system: NCI/ADR-RES
[51] = test system: SNB-19
[52] = test system: TK-10
[53] = test system: SK-OV-3
[54] = test system: OVCAR-5
[55] = test system: NCI-H460
[56] = test system: RPMI-8226
[57] = test system: MDA-N
[58] = test system: NCI-H522
[59] = test system: SN12C

C[n+]1cn(-c2ccc([N+](=O)[O-])cn2)c2ccccc21
GI50 [1]: > 100 µM (inactive)
GI50 [2]: > 100 µM (inactive)
GI50 [3]: > 100 µM (inactive)
GI50 [4]: > 100 µM (inactive)
GI50 [5]: > 100 µM (inactive)
GI50 [6]: > 100 µM (inactive)
GI50 [7]: > 100 µM (inactive)
GI50 [8]: > 100 µM
GI50 [9]: > 100 µM (inactive)
GI50 [10]: > 100 µM (inactive)
GI50 [11]: > 100 µM (inactive)
GI50 [12]: > 100 µM (inactive)
GI50 [13]: > 100 µM (inactive)
GI50 [14]: > 100 µM (inactive)
GI50 [15]: > 100 µM (inactive)
GI50 [16]: > 100 µM (inactive)
GI50 [17]: > 100 µM (inactive)
GI50 [18]: > 100 µM (inactive)
GI50 [19]: > 100 µM (inactive)
GI50 [20]: > 100 µM (inactive)
GI50 [21]: > 100 µM (inactive)
GI50 [22]: > 100 µM (inactive)
GI50 [23]: > 100 µM (inactive)
GI50 [24]: > 100 µM (inactive)
GI50 [25]: > 100 µM (inactive)
GI50 [26]: > 100 µM (inactive)
GI50 [27]: > 100 µM (inactive)
GI50 [28]: > 100 µM (inactive)
GI50 [29]: > 100 µM (inactive)
GI50 [30]: > 100 µM (inactive)
GI50 [31]: > 100 µM (inactive)
GI50 [32]: > 100 µM (inactive)
GI50 [33]: > 100 µM (inactive)
GI50 [34]: > 100 µM (inactive)
GI50 [35]: > 100 µM (inactive)
GI50 [36]: > 100 µM (inactive)
GI50 [37]: > 100 µM (inactive)
GI50 [38]: > 100 µM (inactive)
GI50 [39]: > 100 µM (inactive)
GI50 [40]: > 100 µM (inactive)
GI50 [41]: > 100 µM (inactive)
GI50 [42]: > 100 µM (inactive)
GI50 [43]: > 100 µM (inactive)
GI50 [44]: > 100 µM (inactive)
GI50 [45]: > 100 µM (inactive)
GI50 [46]: > 100 µM (inactive)
GI50 [47]: > 100 µM (inactive)
GI50 [48]: > 100 µM (inactive)
GI50 [49]: > 100 µM (inactive)
GI50 [50]: > 100 µM (inactive)
GI50 [51]: > 100 µM (inactive)
GI50 [52]: > 100 µM (inactive)
GI50 [53]: > 100 µM (inactive)
GI50 [54]: > 100 µM (inactive)
GI50 [55]: > 100 µM (inactive)
GI50 [56]: > 100 µM (inactive)

C[C@H]1[C@H](N2CCCC2)O[Si](C(C)(C)C)(C(C)(C)C)[C@@H]1C
GI50 [3]: 46.8 µM (inactive)
GI50 [4]: > 100 µM (inactive)
GI50 [5]: 36.2 µM (inactive)
GI50 [6]: > 100 µM (inactive)
GI50 [8]: > 100 µM
GI50 [9]: > 100 µM (inactive)
GI50 [10]: > 100 µM (inactive)
GI50 [11]: > 100 µM (inactive)
GI50 [12]: > 100 µM (inactive)
GI50 [13]: > 100 µM (inactive)
GI50 [14]: 59.2 µM (inactive)
GI50 [15]: > 100 µM (inactive)
GI50 [16]: > 100 µM (inactive)
GI50 [17]: > 100 µM (inactive)
GI50 [57]: > 100 µM (inactive)
GI50 [18]: > 100 µM (inactive)
GI50 [19]: > 100 µM (inactive)
GI50 [20]: > 100 µM (inactive)
GI50 [21]: > 100 µM (inactive)
GI50 [58]: > 100 µM (inactive)
GI50 [22]: 74.6 µM (inactive)
GI50 [23]: > 100 µM (inactive)
GI50 [25]: > 100 µM (inactive)
GI50 [26]: > 100 µM (inactive)
GI50 [27]: > 100 µM (inactive)
GI50 [28]: > 100 µM (inactive)
GI50 [29]: > 100 µM (inactive)
GI50 [30]: 97.3 µM (inactive)
GI50 [31]: > 100 µM (inactive)
GI50 [32]: > 100 µM (inactive)
GI50 [33]: > 100 µM (inactive)
GI50 [34]: > 100 µM (inactive)
GI50 [35]: > 100 µM (inactive)
GI50 [36]: > 100 µM (inactive)
GI50 [37]: 99.5 µM (inactive)
GI50 [38]: > 100 µM (inactive)
GI50 [39]: > 100 µM (inactive)
GI50 [40]: > 100 µM (inactive)
GI50 [41]: > 100 µM (inactive)
GI50 [42]: 13.7 µM (inactive)
GI50 [43]: > 100 µM (inactive)
GI50 [44]: > 100 µM (inactive)
GI50 [45]: > 100 µM (inactive)
GI50 [46]: < 0.01 µM (active)
GI50 [59]: > 100 µM (inactive)
GI50 [48]: > 100 µM (inactive)
GI50 [49]: > 100 µM (inactive)
GI50 [50]: > 100 µM (inactive)
GI50 [51]: 0.964 µM (active)
GI50 [52]: > 100 µM (inactive)
GI50 [53]: > 100 µM (inactive)
GI50 [54]: > 100 µM (inactive)
GI50 [56]: > 100 µM (inactive)
